US20230085307A1, “PYRIDAZINONE COMPOUND AND HERBICIDE” (NISSAN CHEMICAL CORPORATION, priority 2019, published 2023)

System: rice flat sedge
Assay: Test Example 3: herbicidal effect by foliage application, Wagner pot (Table 18, symbol E)
Assay type: in vivo, rice flat sedge (Cyperus iria)
Conditions: 320 g/ha
How it was run: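 Plants were sown in alluvial soil held under 0.1–0.5 cm standing water and grown 14 days in a greenhouse at 25–30 °C. An emulsifiable formulation, water-diluted to the set dose, was then sprayed onto the foliage, and effects were scored three weeks later using previously defined criteria.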

| SMILES | herbicidal effect on rice flat sedge (E) |
| --- | --- |
| CCCC(=O)Oc1c(C)nn(C)c(=O)c1-c1c(-c2ccc(OC(F)(F)F)cc2)sc2cc(F)ccc12 [3-144] | 5 (Herbicidal rate of 90% or more (almost completely withered)) |
| COc1ccc2c(-c3c(OC(=O)C4CCCCC4)c(C)nn(C)c3=O)c(-c3ccccc3OC)sc2c1 [3-156] | 3 (Herbicidal rate of 40% or more and less than 70%) |

System: Italian ryegrass
Assay: Test Example 5: herbicidal effect by foliage application, plastic box (Table 20, symbol K)
Assay type: in vivo, Italian ryegrass (Lolium multiflorum)
Conditions: 320 g/ha, foliage application after 14-day growth, evaluated three weeks after application
How it was run: (§1)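 Plants were sown into sterilized diluvial soil under about 1.5 cm cover and kept in a greenhouse at 25° C. to 30° C. Fourteen days on, foliage received an even spray of the diluted emulsion. Herbicidal or crop effect was judged three weeks afterwards.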

| SMILES | herbicidal effect on K: Italian ryegrass (evaluation grade 0-5) |
| --- | --- |
| CCCC(=O)Oc1c(C)nn(C)c(=O)c1-c1c(-c2ccc(OC(F)(F)F)cc2)sc2cc(F)ccc12 [3-144] | 0 (Herbicidal rate of 5% or less (almost no effect)) |
| COc1ccc2c(-c3c(OC(=O)C4CCCCC4)c(C)nn(C)c3=O)c(-c3ccccc3OC)sc2c1 [3-156] | 3 (Herbicidal rate of 40% or more and less than 70%) |

System: velvetleaf
Assay: Test Example 4: herbicidal effect by soil treatment (Table 19, symbol M)
Assay type: in vivo, velvetleaf (Abutilon theophrasti)
Conditions: amount of applied herbicide 320 g/ha
How it was run: (§2)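 In this soil treatment, the formulated compound reached the seeds only through the soil: seeds were buried about 1.5 cm deep in sterilized diluvial soil, then the diluted emulsion was sprayed over the surface. After three weeks at 25° C. to 30° C. in a greenhouse, effects were graded on criteria from an earlier test.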

| SMILES | Herbicidal effect by soil treatment, M: velvetleaf |
| --- | --- |
| CCCC(=O)Oc1c(C)nn(C)c(=O)c1-c1c(-c2ccc(OC(F)(F)F)cc2)sc2cc(F)ccc12 [3-144] | 0 (Herbicidal rate of 5% or less (almost no effect)) |
| COc1ccc2c(-c3c(OC(=O)C4CCCCC4)c(C)nn(C)c3=O)c(-c3ccccc3OC)sc2c1 [3-156] | 0 (Herbicidal rate of 5% or less (almost no effect)) |

System: barnyard grass
Assay: Test Example 5: herbicidal effect by foliage application, plastic box (Table 20, symbol H)
Assay type: in vivo, barnyard grass (Echinochloa crus-galli)
Conditions: 320 g/ha, foliage application after 14-day growth, evaluated three weeks after application
How it was run: as §1

| SMILES | herbicidal effect on H: barnyard grass (evaluation grade 0-5) |
| --- | --- |
| CCCC(=O)Oc1c(C)nn(C)c(=O)c1-c1c(-c2ccc(OC(F)(F)F)cc2)sc2cc(F)ccc12 [3-144] | 4 (Herbicidal rate of 70% or more and less than 90%) |
| COc1ccc2c(-c3c(OC(=O)C4CCCCC4)c(C)nn(C)c3=O)c(-c3ccccc3OC)sc2c1 [3-156] | 5 (Herbicidal rate of 90% or more (almost completely withered)) |

System: Italian ryegrass
Assay: Test Example 4: herbicidal effect by soil treatment (Table 19, symbol K)
Assay type: in vivo, Italian ryegrass (Lolium multiflorum)
Conditions: amount of applied herbicide 320 g/ha
How it was run: as §2

| SMILES | Herbicidal effect by soil treatment, K: Italian ryegrass |
| --- | --- |
| CCCC(=O)Oc1c(C)nn(C)c(=O)c1-c1c(-c2ccc(OC(F)(F)F)cc2)sc2cc(F)ccc12 [3-144] | 0 (Herbicidal rate of 5% or less (almost no effect)) |
| COc1ccc2c(-c3c(OC(=O)C4CCCCC4)c(C)nn(C)c3=O)c(-c3ccccc3OC)sc2c1 [3-156] | 0 (Herbicidal rate of 5% or less (almost no effect)) |

System: lambsquarters
Assay: Test Example 5: herbicidal effect by foliage application, plastic box (Table 20, symbol O)
Assay type: in vivo, lambsquarters (Chenopodium album)
Conditions: 320 g/ha, foliage application after 14-day growth, evaluated three weeks after application
How it was run: as §1

| SMILES | herbicidal effect on O: lambsquarters (evaluation grade 0-5) |
| --- | --- |
| CCCC(=O)Oc1c(C)nn(C)c(=O)c1-c1c(-c2ccc(OC(F)(F)F)cc2)sc2cc(F)ccc12 [3-144] | 5 (Herbicidal rate of 90% or more (almost completely withered)) |
| COc1ccc2c(-c3c(OC(=O)C4CCCCC4)c(C)nn(C)c3=O)c(-c3ccccc3OC)sc2c1 [3-156] | 4 (Herbicidal rate of 70% or more and less than 90%) |

System: lambsquarters
Assay: Test Example 4: herbicidal effect by soil treatment (Table 19, symbol O)
Assay type: in vivo, lambsquarters (Chenopodium album)
Conditions: amount of applied herbicide 320 g/ha
How it was run: as §2

| SMILES | Herbicidal effect by soil treatment, O: lambsquarters |
| --- | --- |
| CCCC(=O)Oc1c(C)nn(C)c(=O)c1-c1c(-c2ccc(OC(F)(F)F)cc2)sc2cc(F)ccc12 [3-144] | 3 (Herbicidal rate of 40% or more and less than 70%) |
| COc1ccc2c(-c3c(OC(=O)C4CCCCC4)c(C)nn(C)c3=O)c(-c3ccccc3OC)sc2c1 [3-156] | 0 (Herbicidal rate of 5% or less (almost no effect)) |

System: late watergrass
Assay: Test Example 2: herbicidal activity, application during weed generation under submerged conditions (Table 17, symbol A)
Assay type: in vivo, late watergrass (Echinochloa oryzicola)
Conditions: AAH 320 g/ha; application during weed generation, submerged conditions
How it was run: (§3)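 Alluvial soil in Wagner pots was flooded to 4 cm depth and sown with the three weeds together; pots were kept in a greenhouse at 25° C. to 30° C. At the one to two leaf stage, an emulsion formulation diluted in water to a set rate went onto the water surface; scored three weeks later.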

| SMILES | herbicidal effect rating, A: late watergrass |
| --- | --- |
| CCCC(=O)Oc1c(C)nn(C)c(=O)c1-c1c(-c2ccc(OC(F)(F)F)cc2)sc2cc(F)ccc12 [3-144] | 2 (Herbicidal rate of 20% or more and less than 40%) |
| COc1ccc2c(-c3c(OC(=O)C4CCCCC4)c(C)nn(C)c3=O)c(-c3ccccc3OC)sc2c1 [3-156] | 3 (Herbicidal rate of 40% or more and less than 70%) |

System: velvetleaf
Assay: Test Example 5: herbicidal effect by foliage application, plastic box (Table 20, symbol M)
Assay type: in vivo, velvetleaf (Abutilon theophrasti)
Conditions: 320 g/ha, foliage application after 14-day growth, evaluated three weeks after application
How it was run: as §1

| SMILES | herbicidal effect on M: velvetleaf (evaluation grade 0-5) |
| --- | --- |
| CCCC(=O)Oc1c(C)nn(C)c(=O)c1-c1c(-c2ccc(OC(F)(F)F)cc2)sc2cc(F)ccc12 [3-144] | 4 (Herbicidal rate of 70% or more and less than 90%) |
| COc1ccc2c(-c3c(OC(=O)C4CCCCC4)c(C)nn(C)c3=O)c(-c3ccccc3OC)sc2c1 [3-156] | 5 (Herbicidal rate of 90% or more (almost completely withered)) |

System: Japanese bulrush
Assay: Test Example 1: herbicidal activity, application before weed generation under submerged conditions (Table 16, symbol B)
Assay type: in vivo, Japanese bulrush (Schoenoplectus juncoides)
Conditions: amount of applied herbicide 320 g/ha
How it was run: (§4)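 Emulsion formulation, water-diluted to set dose, was put onto the flooded surface (4 cm depth, alluvial soil) the same day weeds were sown and 2.5-leaf rice transplanted. After 3 weeks at 25-30 °C under glass, each species was rated 0 (≤5% kill) to 5 (≥90% kill).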

| SMILES | Herbicidal effect, B: Japanese bulrush |
| --- | --- |
| CCCC(=O)Oc1c(C)nn(C)c(=O)c1-c1c(-c2ccc(OC(F)(F)F)cc2)sc2cc(F)ccc12 [3-144] | 3 (Herbicidal rate of 40% or more and less than 70%) |
| COc1ccc2c(-c3c(OC(=O)C4CCCCC4)c(C)nn(C)c3=O)c(-c3ccccc3OC)sc2c1 [3-156] | 4 (Herbicidal rate of 70% or more and less than 90%) |

System: wild oat
Assay: Test Example 4: herbicidal effect by soil treatment (Table 19, symbol I)
Assay type: in vivo, wild oat (Avena fatua)
Conditions: amount of applied herbicide 320 g/ha
How it was run: as §2

| SMILES | Herbicidal effect by soil treatment, I: wild oat |
| --- | --- |
| CCCC(=O)Oc1c(C)nn(C)c(=O)c1-c1c(-c2ccc(OC(F)(F)F)cc2)sc2cc(F)ccc12 [3-144] | 0 (Herbicidal rate of 5% or less (almost no effect)) |
| COc1ccc2c(-c3c(OC(=O)C4CCCCC4)c(C)nn(C)c3=O)c(-c3ccccc3OC)sc2c1 [3-156] | 0 (Herbicidal rate of 5% or less (almost no effect)) |

System: wild oat
Assay: Test Example 5: herbicidal effect by foliage application, plastic box (Table 20, symbol I)
Assay type: in vivo, wild oat (Avena fatua)
Conditions: 320 g/ha, foliage application after 14-day growth, evaluated three weeks after application
How it was run: as §1

| SMILES | herbicidal effect on I: wild oat (evaluation grade 0-5) |
| --- | --- |
| CCCC(=O)Oc1c(C)nn(C)c(=O)c1-c1c(-c2ccc(OC(F)(F)F)cc2)sc2cc(F)ccc12 [3-144] | 0 (Herbicidal rate of 5% or less (almost no effect)) |
| COc1ccc2c(-c3c(OC(=O)C4CCCCC4)c(C)nn(C)c3=O)c(-c3ccccc3OC)sc2c1 [3-156] | 4 (Herbicidal rate of 70% or more and less than 90%) |

System: chickweed
Assay: Test Example 5: herbicidal effect by foliage application, plastic box (Table 20, symbol P)
Assay type: in vivo, common chickweed (Stellaria media)
Conditions: 320 g/ha, foliage application after 14-day growth, evaluated three weeks after application
How it was run: as §1

| SMILES | herbicidal effect on P: chickweed (evaluation grade 0-5) |
| --- | --- |
| CCCC(=O)Oc1c(C)nn(C)c(=O)c1-c1c(-c2ccc(OC(F)(F)F)cc2)sc2cc(F)ccc12 [3-144] | 5 (Herbicidal rate of 90% or more (almost completely withered)) |
| COc1ccc2c(-c3c(OC(=O)C4CCCCC4)c(C)nn(C)c3=O)c(-c3ccccc3OC)sc2c1 [3-156] | 5 (Herbicidal rate of 90% or more (almost completely withered)) |

System: persian speedwell
Assay: Test Example 4: herbicidal effect by soil treatment (Table 19, symbol R)
Assay type: in vivo, Persian speedwell (Veronica persica)
Conditions: amount of applied herbicide 320 g/ha
How it was run: as §2

| SMILES | Herbicidal effect by soil treatment, R: persian speedwell |
| --- | --- |
| CCCC(=O)Oc1c(C)nn(C)c(=O)c1-c1c(-c2ccc(OC(F)(F)F)cc2)sc2cc(F)ccc12 [3-144] | 0 (Herbicidal rate of 5% or less (almost no effect)) |
| COc1ccc2c(-c3c(OC(=O)C4CCCCC4)c(C)nn(C)c3=O)c(-c3ccccc3OC)sc2c1 [3-156] | 4 (Herbicidal rate of 70% or more and less than 90%) |

System: oval-leafed pondweed
Assay: Test Example 1: herbicidal activity, application before weed generation under submerged conditions (Table 16, symbol C)
Assay type: in vivo, oval-leafed pondweed (Monochoria vaginalis)
Conditions: amount of applied herbicide 320 g/ha
How it was run: as §4

| SMILES | Herbicidal effect, C: oval-leafed pondweed |
| --- | --- |
| CCCC(=O)Oc1c(C)nn(C)c(=O)c1-c1c(-c2ccc(OC(F)(F)F)cc2)sc2cc(F)ccc12 [3-144] | 0 (Herbicidal rate of 5% or less (almost no effect)) |
| COc1ccc2c(-c3c(OC(=O)C4CCCCC4)c(C)nn(C)c3=O)c(-c3ccccc3OC)sc2c1 [3-156] | 4 (Herbicidal rate of 70% or more and less than 90%) |

System: windgrass
Assay: Test Example 5: herbicidal effect by foliage application, plastic box (Table 20, symbol L)
Assay type: in vivo, windgrass (Apera spica-venti)
Conditions: 320 g/ha, foliage application after 14-day growth, evaluated three weeks after application
How it was run: as §1

| SMILES | herbicidal effect on L: windgrass (evaluation grade 0-5) |
| --- | --- |
| CCCC(=O)Oc1c(C)nn(C)c(=O)c1-c1c(-c2ccc(OC(F)(F)F)cc2)sc2cc(F)ccc12 [3-144] | 0 (Herbicidal rate of 5% or less (almost no effect)) |
| COc1ccc2c(-c3c(OC(=O)C4CCCCC4)c(C)nn(C)c3=O)c(-c3ccccc3OC)sc2c1 [3-156] | 5 (Herbicidal rate of 90% or more (almost completely withered)) |

System: Japanese bulrush
Assay: Test Example 2: herbicidal activity, application during weed generation under submerged conditions (Table 17, symbol B)
Assay type: in vivo, Japanese bulrush (Schoenoplectus juncoides)
Conditions: AAH 320 g/ha; application during weed generation, submerged conditions
How it was run: as §3

| SMILES | herbicidal effect rating, B: Japanese bulrush |
| --- | --- |
| CCCC(=O)Oc1c(C)nn(C)c(=O)c1-c1c(-c2ccc(OC(F)(F)F)cc2)sc2cc(F)ccc12 [3-144] | 3 (Herbicidal rate of 40% or more and less than 70%) |
| COc1ccc2c(-c3c(OC(=O)C4CCCCC4)c(C)nn(C)c3=O)c(-c3ccccc3OC)sc2c1 [3-156] | 4 (Herbicidal rate of 70% or more and less than 90%) |
